Measurements taken from US5521173A, “Tricyclic benzazepine vasopressin antagonists” (American Home Products Corporation, priority 1995, dated 1996).

Legend:
[1] = biological target: T1, Rat Kidney Medullary V2 Receptors (Rattus norvegicus, UniProt Q00788); experiment: Binding Assay to Rat Kidney Medullary V2 Receptors; settings: rat kidney medullary V2 (no asterisk)
T1 construct: Medullary tissues from rat kidneys are dissected out; from tissue; host or cells: rat kidney medulla membranes
Method: Binding Assay to Rat Kidney Medullary V2 Receptors
Medullary tissues from rat kidneys are dissected out, cut into small pieces and soaked in a […] sodium chloride solution containing 1.0 mM EDTA with many changes of the liquid phase, until the solution is clear of blood. The tissue is homogenized in a 0.25M sucrose solution containing 1.0 mM EDTA and 0.1 mM PMSF using a Potter-Elvehjem homogenizer with a teflon pestle. The homogenate is filtered through several layers (4 layers) of cheese cloth. The filtrate is rehomogenized using a dounce homogenizer, with a tight fitting pestle. The final homogenate is centrifuged at 1500× g for 15 min. […] The protein content is determined by the Lowry's method (Lowry et al., J. Biol. Chem., 1953). […]
For binding experiments, the following is added in μl volume to wells of a 96 well format of a microtiter plate: 100.0 μl of 100.0 mM Tris.HCl buffer containing 0.2% heat inactivated BSA, 10.0 mM MgCl2 and a mixture of protease inhibitors: leupeptin, 1.0 mg %; aprotinin, 1.0 mg %; 1,10-phenanthroline, 2.0 mg %; trypsin inhibitor, 10.0 mg % and 0.1 mM PMSF, 20.0 μl of [^3 H] […] Non-specific binding is assessed in the presence of 1.0 μM of unlabeled ligand, added in 20 μl volume. […] The data are analyzed for IC50 values by the LUNDON-2 program for competition (LUNDON SOFTWARE, Ohio).

Rat Hepatic V1 Receptors = biological target: T2, Rat Hepatic V1 Receptors (Rattus norvegicus, UniProt P30560); experiment: Binding Assay to Rat Hepatic V1 Receptors; settings: rat hepatic V1 (no asterisk)
T2 construct: Rat liver plasma membranes expressing the vasopressin V1 receptor subtypes; from tissue; host or cells: rat liver plasma membranes (sucrose density gradient)
T2 sequence (P30560 whole entry): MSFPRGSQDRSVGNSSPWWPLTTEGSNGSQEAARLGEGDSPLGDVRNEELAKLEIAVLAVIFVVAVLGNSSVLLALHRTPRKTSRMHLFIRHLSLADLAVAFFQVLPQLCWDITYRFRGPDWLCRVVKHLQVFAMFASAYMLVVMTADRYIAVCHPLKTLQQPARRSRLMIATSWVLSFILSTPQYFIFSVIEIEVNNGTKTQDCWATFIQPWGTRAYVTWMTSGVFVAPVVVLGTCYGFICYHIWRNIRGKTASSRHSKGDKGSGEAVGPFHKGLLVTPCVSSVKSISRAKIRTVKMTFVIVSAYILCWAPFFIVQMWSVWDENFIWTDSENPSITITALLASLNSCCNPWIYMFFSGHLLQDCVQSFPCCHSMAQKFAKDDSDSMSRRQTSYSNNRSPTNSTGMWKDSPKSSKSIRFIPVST
Method: Binding Assay to Rat Hepatic V1 Receptors
Rat liver plasma membranes expressing the vasopressin V1 receptor subtypes are isolated by sucrose density gradient according to the method described by Lesko et al., (1973). These membranes are quickly suspended in 50.0 mM Tris.HCl buffer, pH 7.4, containing 0.2% bovine serum albumin (BSA) and 0.1 mM phenylmethylsulfonylfluoride (PMSF) and kept frozen at -70° C. until used in subsequent binding experiments. […]
For test compounds, these are solubilized in 50% dimethylsulfoxide (DMSO) and added in 20.0 μl volume to a final incubation volume of 200 μl. […] The radioactivity trapped on the filter disk by the ligand-receptor complex is assessed by liquid scintillation counting in a Packard LS Counter, with an efficiency of 65% for tritium. The data are analyzed for IC50 values by the LUNDON-2 program for competition (LUNDON SOFTWARE, Ohio).

T1 sequence (Q00788 whole entry): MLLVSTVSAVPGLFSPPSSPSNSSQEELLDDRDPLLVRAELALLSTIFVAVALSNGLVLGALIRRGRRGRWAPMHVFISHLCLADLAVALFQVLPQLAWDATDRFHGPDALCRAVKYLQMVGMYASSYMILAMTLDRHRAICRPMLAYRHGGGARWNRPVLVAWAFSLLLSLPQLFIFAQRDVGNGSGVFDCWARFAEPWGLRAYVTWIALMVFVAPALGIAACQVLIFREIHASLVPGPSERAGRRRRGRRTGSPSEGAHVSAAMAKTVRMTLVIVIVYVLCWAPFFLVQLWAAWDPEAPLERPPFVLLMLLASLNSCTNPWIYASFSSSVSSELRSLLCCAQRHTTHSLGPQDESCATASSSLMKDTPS

Structure (SMILES)	IC50 [1]	IC50 (Rat Hepatic V1 Receptors)
O=C(c1ccc(-c2ccccn2)cc1)N1Cc2cccn2Cc2ccccc21 [Example 9, 10,11-Dihydro-10-[4-(2-pyridinyl)benzoyl]-5H-pyrrolo[2,1-c][1,4]benzodiazepine]	1200 nM	400 nM
O=C(c1ccc(-c2ccccc2C(F)(F)F)cc1)N1Cc2cccn2Cc2ccccc21 [Example 8]	3300 nM	670 nM
